Data from patent US9346846B1, “Anti-cancer compounds and methods for treating cancer” (YALE UNIVERSITY, priority 2013, dated 2016).
“Also recorded” adds a separate entry of the source.

How the values were obtained:
Type in all cases: cell-based
[1] = system: pATR; test: Western blotting of treated MCF7 cells, pATR; settings: 24 hour treatment, listed as LA
Description: (§1) MCF-7 are seeded into 6-well dishes and treated with various doses of (−)-lomaiviticin A (LA), in the absence and presence of ionizing radiation (IR) at a dose rate of 2.4295 Gy/min (2 Gy, X-Ray) for 24 hour. After treatment, the cells were harvested for lysis in AZ lysis buffer ([…] Tris, 250 mM NaCl, 1% Igepal, 0.1% SDS, 5 mM EDTA, 10 mM Na4P2O7, 10 mM NaF) containing protease and phosphatase inhibitors. Western blotting was performed (FIG. 26).
(§2) Primary antibodies used were: mouse monoclonal anti-Ser1981-pATM (10H11.E12, Millipore, Temecula, Calif.), mouse monoclonal anti-vinculin (SPM227, Abcam, Cambridge, Mass.), rabbit polyclonal anti-Ser428-pATR (Cell Signaling, Danvers, Mass.), rabbit polyclonal anti-Thr68-pCHK2 (Cell Signaling), rabbit monoclonal anti-CHK2 (D9C6, Cell Signaling), rabbit monoclonal anti-Ser345-pCHK1 (Cell Signaling), and rabbit monoclonal anti-CHK1 (E250, Millipore).
(§3) Proteins were visualized with horseradish peroxidase-conjugated anti-mouse and anti-rabbit immunoglobulin G (Thermo Scientific, Rockford, Ill.) and the SuperSignal West Pico Chemiluminescent Substrate detection system (Thermo Scientific).

[2] = system: pCHK1; test: Western blotting of treated MCF7 cells, pCHK1; settings: 24 hour treatment, listed as LA
Description: as §1, §2, §3

[3] = system: hypoxic A549 cells; test: Chronogenic survival assay in hypoxic versus normoxic A549 cells; settings: hypoxia vs normoxia, 24 hours treatment
Description: (§4) A number of cancer cells lines were tested for effectness of (−)-lomaiviticin A or MK7-206. These cell lines are DNA damage response deficient cells (DDR-deficient cancer cells, indicated in FIGS. 16-24) or hypoxic cells (indicated in FIG. 25). The indicated cells were seeded at 500 cells per well in 6-23ll dishes and treated with various concentrations of (−)-lomaiviticin A at the indicated concentrations indicated in FIGS. 16-25 for a period of 24 hours, after which time the media containing the inhibitor was removed and replaced with fresh media. Colonies were fixed with 0.9% saline solution and stained with crystal violet 8-14 days later. Colonies consistent of greater than 50 cells were counted. Experiments utilizing MK7-206 for the cell lines which are presented in attached FIG. 28 (Table 2) and FIG. 30 (Table 4) were also conducted (at higher concentrations than for (−)lomaiviticin A).

[4] = system: hypoxic MCF7 cells; test: Chronogenic survival assay in hypoxic versus normoxic MCF7 cells; settings: hypoxia vs normoxia, 24 hours treatment
Description: as §4

[5] = system: DDR-deficient cancer cells (BRCA2, pten, KU80 and DNApk); test: Chronogenic survival assay in DNA damage response deficient cancer cell lines
Description: as §4

[6] = system: pATM; test: Western blotting of treated MCF7 cells, pATM; settings: 24 hour treatment
Description: as §1, §2, §3

[7] = system: pCHK2; test: Western blotting of treated MCF7 cells, pCHK2; settings: 24 hour treatment
Description: as §1, §2, §3

(−)-lomaiviticin A
change in pATR (western blot) [1]: no increase | change in pCHK1 (western blot) [2]: no increase | sensitivity of hypoxic cells compared with normoxic cells [3]: more sensitive | sensitivity of hypoxic cells compared with normoxic cells [4]: more sensitive | sensitivity of DDR-deficient cells to the compound ([5]; DDR-deficient (BRCA2, pten, KU80, DNApk) cells, 24 hours treatment, colonies stained 8-14 days later): more sensitive; also recorded: particularly susceptible | efficacy against cell lines in which DNA damage repair systems are deficient or down regulated ([5]; FIGS. 27-30): excellent efficacy | change in pATM (western blot) [6]: increase | change in pCHK2 (western blot) [7]: increase
